The source of these data is PMC10746112, “Synthesis and Pro-Apoptotic Effects of Nitrovinylanthracenes and Related Compounds in Chronic Lymphocytic Leukaemia (CLL) and Burkitt’s Lymphoma (BL)” (Molecules, 2023).

Molecules are shown by their SMILES. Values joined by “and” are separate entries in the source; they are usually repeats but may differ in a detail not shown here. Equal values may be shown once. Read-outs that look alike come from different tables or passages of the source.

In data set [1] the test system is DG-75 Burkitt’s lymphoma cell line. In words: alamarBlue cell viability assay. The following applies: for viability at 1 µM / viability at 10 µM: Homo sapiens, DG-75, 48 h; for % Viable Cells Remaining DG-75: 48 h. Background: Alamar Blue is a resazurin reagent that responds to reducing activity.
For data set [2], the system named is MUTU-I Burkitt’s lymphoma cell line. In words: alamarBlue cell viability assay. The note with it: 24 h; for viability at 1 µM / viability at 10 µM: MUTU-I.
The test system of the next data set is PGA-1 CLL cell line. In words: alamarBlue cell viability assay. The note with it: 24 h; for % Viability PGA-1: 10 µM.
Another data set has as its system HG-3 CLL cell line. In words: alamarBlue cell viability assay. The following applies: 24 h; for viability at 10 µM: read-out: % Viability HG-3, 10 µM, 24 h.
Data set [3] relates to MUTU-I Burkitt’s lymphoma cell line. The following applies: human, 24 h, 10 µM.
Data set [4] has as its system DG-75 Burkitt’s lymphoma cell line. The note with it: read-out: IC50 DG-75; previous work; cited from earlier work.
Data set [5] concerns MUTU-I Burkitt’s lymphoma cell line. The following applies: cited from earlier work; for IC50: read-out: IC50 MUTU-I, previous work.
[6] abbreviates: read-out: % Viable Cells Remaining DG-75, 1 µM, 48 h.
Where [7] appears, read: read-out: % Viable Cells Remaining DG-75, 10 µM, 48 h.
Where [8] appears, read: read-out: % Viable Cells Remaining MUTU-1, 1 µM, 24 h.
Where [9] appears, read: read-out: % Viable Cells Remaining MUTU-1, 10 µM, 24 h.
Where [10] appears, read: CLL cell, read-out: % Viability PGA-1, 10 µM, 24 h.
Setting [11] is: read-out: % Viable Cells Remaining MUTU-1.
Where [12] appears, read: read-out: % Viable Cells Remaining DG-75.

Turning to `c1ccc2c(CN3CCCC3)c3ccccc3cc2c1` [Compound 29b], the viability at 1 µM stood at 93.2% in data set [1] (setting [6]) and 108% in data set [2] (setting [8]). For the same compound, the viability at 10 µM is 97.2% in data set [1] (setting [7]) and 106% in data set [2] (setting [9]).
Regarding `CNCCCC12CCC(c3ccccc31)c1ccccc12` [Maprotiline, maprotiline, reference compound], the viability at 1 µM in data set [1] (setting [6]) was 102%; in data set [2] (setting [8]), 93.1%. Also, the viability at 10 µM in data set [1] (setting [7]) amounted to 65%; in data set [2] (setting [9]), 72%.
As a reminder, the melting point is the temperature, or range, at which the solid turns liquid. The compound `O=[N+]([O-])/C=C/c1c2ccccc2c(Br)c2ccccc12` [Compound 19h, (E)-9-Bromo-10-(2-Nitrovinyl)Anthracene] showed a melting point of 227 to 230 °C. Besides, the viability at 1 µM in data set [1] (setting [6]) amounted to 84.8%. Further, the viability at 10 µM in data set [1] (setting [7]) worked out at 70%. Besides, in the data set on PGA-1 CLL cell line (setting [10]), the viability at 10 µM amounted to 36.9%. Also, the viability at 1 µM in data set [2] (setting [8]) stood at 51.2%. The viability at 10 µM in data set [2] (setting [9]) was determined as 3.36%.
Take `c1ccc2c(CN3CCCCCC3)c3ccccc3cc2c1` [Compound 29a]: the viability at 1 µM in data set [1] (setting [6]) was determined as 83.6%; in data set [2] (setting [8]), 103%. The viability at 10 µM in data set [1] (setting [7]) turned out to be 89.3%; in data set [2] (setting [9]), 99%.
As to `C/C(=C\c1c2ccccc2cc2ccccc12)[N+](=O)[O-]` [Compound 19b, (E)-9-(2-nitroprop-1-en-1-yl)anthracene], the values for the viability at 1 µM in data set [1] (setting [6]) and in data set [2] (setting [8]) were 102% and 99.8%, respectively. In addition, the viability at 10 µM in data set [1] (setting [7]) was found to be 89.3%; in the data set on HG-3 CLL cell line (CLL cell), 82%; with PGA-1 CLL cell line (setting [10]), 81%; in data set [2] (setting [9]), 88.2%.
`O=[N+]([O-])/C=C/c1c2cccc(Cl)c2cc2c(Cl)cccc12` [Compound 19k, (E)-1,8-Dichloro-10-(2-Nitrovinyl)Anthracene]: the results for the viability at 1 µM in data set [1] (setting [6]) and in data set [2] (setting [8]) were 88.7% and 71%, respectively. In addition, the viability at 10 µM in data set [1] (setting [7]) was 0.15%; in data set [2] (setting [9]), -0.18%.
On to `CC/C(=C\c1c2ccccc2c(Cl)c2ccccc12)[N+](=O)[O-]` [Compound 19f, (E)-9-chloro-10-(2-nitrobut-1-en-1-yl)anthracene], for which the viability at 1 µM was 105% in data set [1] (setting [6]) and 96.6% in data set [2] (setting [8]). Moreover, the viability at 10 µM in data set [1] (setting [7]) was 78%; in data set [2] (setting [9]), 97.5%. Also, the “% Viable Cells Remaining MUTU-1” value in data set [3] turned out to be 97.5%.
Consider `O=[N+]([O-])/C=C/c1c2ccccc2c(Cl)c2ccccc12` [Compound 19d], for which the viability at 1 µM stood at 75.1% in data set [1] (setting [6]) and 70.8% in data set [2] (setting [8]). For the same compound, the viability at 10 µM was 57.1% in data set [1] (setting [7]), 97% in the data set with HG-3 CLL cell line (CLL cell), 51.8% in the data set on PGA-1 CLL cell line (setting [10]) and 7.6% in data set [2] (setting [9]). Further, the “% Viable Cells Remaining MUTU-1” value in data set [3] came out at 7.61%.
In the case of `O=[N+]([O-])/C=C/c1cc2ccccc2c2ccccc12` [Compound 21, (E)-9-(2-Nitrovinyl)phenanthrene], the “% Viable Cells Remaining DG-75” value in data set [1] (10 µM) is on record as 62.2%. The viability at 1 µM in data set [1] (setting [6]) came out at 99.5%; in data set [2] (setting [11]), 73.6%. The viability at 10 µM in data set [1] (setting [7]) turned out to be 60%; with HG-3 CLL cell line (CLL cell) it was 29%; in the data set with PGA-1 CLL cell line (setting [10]) it was 11.8%; in data set [2] (setting [11]), 1.68%.
In the case of `OCc1c2ccccc2cc2ccccc12` [Compound 26, anthracen-9-ylmethanol], the viability at 1 µM in data set [1] (setting [6]) is 102%; in data set [2] (setting [8]) it was 106%. Further, the viability at 10 µM was 93% in data set [1] (setting [7]) and 94.9% in data set [2] (setting [9]).
Compound `N#CC(C#N)=Cc1c2ccccc2c(Cl)c2ccccc12` [Compound 23b, 2-((10-Chloroanthracen-9-yl)Methylene)Malononitrile] came in with a melting point of 196 to 198 °C. In data set [1] (1 µM), the “% Viable Cells Remaining DG-75” value is given as 85.59%. In data set [1] (10 µM), the “% Viable Cells Remaining DG-75” value is ~ 55% and 52.84%. The “% Viability PGA-1” value with PGA-1 CLL cell line was > 50%. The “% Viable Cells Remaining MUTU-1” value in data set [2] (1 µM) stood at 92.59%. Further, the “% Viable Cells Remaining MUTU-1” value in data set [2] (10 µM) was ~ 20% and 16.78%.
Broadly, the IC50 is the concentration that inhibits the measured activity by half. For the compound `CC/C(=C\c1cc(Br)ccc1OC)[N+](=O)[O-]` [Compound 10a, (E)-4-bromo-1-methoxy-2-(2-nitrobut-1-en-1-yl)benzene, reference compound], in the data set with PGA-1 CLL cell line (CLL cell, read-out: % Viability PGA-1, 1 µM, 24 h), the viability at 1 µM amounted to 96.4%. The viability at 10 µM with PGA-1 CLL cell line (setting [10]) was 0.97%. The IC50 is 1410 nM in data set [4] and 450 nM in data set [5].
With `O/N=C/c1c2ccccc2cc2ccccc12` [Compound 32c], the viability at 1 µM stood at 92.5% in data set [1] (setting [6]) and 99.2% in data set [2] (setting [8]). Moreover, the viability at 10 µM is 101% in data set [1] (setting [7]) and 92.7% in data set [2] (setting [9]).
With `CC/C(=C\c1c2ccccc2cc2ccccc12)[N+](=O)[O-]` [Compound 19c], the viability at 1 µM in data set [1] (setting [6]) was 83.8%; in data set [2] (setting [8]), 88.6%. In addition, the viability at 10 µM is 92.3% in data set [1] (setting [7]), 72% with HG-3 CLL cell line (CLL cell), 66% in the data set on PGA-1 CLL cell line (setting [10]) and 78% in data set [2] (setting [9]).
Regarding `O=[N+]([O-])/C=C/c1c2ccccc2c(-c2ccccc2)c2ccccc12` [Compound 19j, (E)-9-(2-Nitrovinyl)-10-Phenylanthracene], the viability at 1 µM is 83.5% in data set [1] (setting [6]) and 68.5% in data set [2] (setting [8]). The results for the viability at 10 µM in data set [1] (setting [7]) and in data set [2] (setting [9]) were 1.5% and 1.29%, respectively.
Regarding `C/C(=C\c1c2ccccc2c(Cl)c2ccccc12)[N+](=O)[O-]` [Compound 19e], the viability at 1 µM in data set [1] (setting [6]) worked out at 82.5%; in data set [2] (setting [8]), 105%. The figures for the viability at 10 µM (in data set [1] (setting [7]); with HG-3 CLL cell line (CLL cell); in data set [2] (setting [9])) were 99.6%, 87% and 98.6%, respectively. For the same compound, the “% Viable Cells Remaining MUTU-1” value in data set [3] stood at 98.6%.
Take `O=C(c1c2ccccc2cc2ccccc12)N1CCOCC1` [Compound 33e]: the viability at 1 µM was 86.1% in data set [1] (setting [6]) and 86.9% in data set [2] (setting [8]). Also, the viability at 10 µM in data set [1] (setting [7]) came to 80.2%; in data set [2] (setting [9]), 85.2%.
Consider `O=[N+]([O-])/C(=C/c1ccc(Cl)cc1)Cc1ccc(Cl)cc1` [Compound 10c, reference compound], for which the concentration for half-maximal inhibition (IC50) in data set [4] is 6390 nM; in data set [5] it was 2970 nM.
Take `CC/C(=C\c1ccccc1F)[N+](=O)[O-]` [Compound 11d]: in the data set with HG-3 CLL cell line (10 µM), the “% Viability HG-3” value is recorded as 0.66%. The viability at 1 µM with HG-3 CLL cell line (CLL cell, read-out: % Viability HG-3, 1 µM, 24 h) came to 14.5%. For the same compound, the “% Viability PGA-1” value in the data set on PGA-1 CLL cell line was 0.02%.
In the case of `N#CCc1c2ccccc2cc2ccccc12` [Compound 28, 2-(anthracen-9-yl)acetonitrile], the viability at 1 µM in data set [1] (setting [6]) was 93.8%; in data set [2] (setting [8]) it was 95.2%. Further, the values for the viability at 10 µM in data set [1] (setting [7]) and in data set [2] (setting [9]) were 85.2% and 88.8%, respectively.
`COc1ccc2c(c1)OC(c1ccccc1)C([N+](=O)[O-])=C2` (stereo not drawn) [Compound 10b, reference compound]: the results for the IC50 in data set [4] and in data set [5] were 1920 nM and 470 nM, respectively.
As for `N#C/C=C/c1c2ccccc2cc2ccccc12` [Compound 23c], the values for the viability at 1 µM in data set [1] (setting [6]) and in data set [2] (setting [8]) were 84.2% and 88.1%, respectively. Moreover, the viability at 10 µM in data set [1] (setting [7]) came to 82%; in data set [2] (setting [9]) it was 86.9%.
Take `ClCc1c2ccccc2cc2ccccc12` [Compound 27, 9-(chloromethyl)anthracene]: the viability at 1 µM was determined as 79% in data set [1] (setting [6]) and 102% in data set [2] (setting [8]). Besides, the viability at 10 µM in data set [1] (setting [7]) worked out at 85.5%; in data set [2] (setting [9]), 93.8%. The “% Viable Cells Remaining MUTU-1” value in data set [3] is 93.8%.
In the case of `N#CC(C#N)=Cc1c2ccccc2cc2ccccc12` [Compound 23a], the viability at 1 µM in data set [1] (setting [12]) was found to be 104%; in data set [2] (setting [11]) it was 91.9%. Moreover, the viability at 10 µM was 98.1% in data set [1] (setting [12]); > 50% with PGA-1 CLL cell line (CLL cell, read-out: % Viability PGA-1); 65.3% in data set [2] (setting [11]).
For `CCN(CC)C(=O)c1c2ccccc2cc2ccccc12` [Compound 33a], the results for the viability at 1 µM in data set [1] (setting [6]) and in data set [2] (setting [8]) were 90.1% and 105%, respectively. In addition, the viability at 10 µM in data set [1] (setting [7]) is 90.5%; in data set [2] (setting [9]), 103%.
The like results for `N/N=C/c1c2ccccc2c(Cl)c2ccccc12` [Compound 32b] were, in that order, 94.8%, 105%, 100% and 82.5%.
In the same order, the values of `O/N=C/Cc1c2ccccc2cc2ccccc12` [Compound 32e] are 102%, 103%, 93% and 94.9%.
In the same order, the values of `N/N=C/c1c2ccccc2cc2ccccc12` [Compound 32a] are 104%, 97.5%, 102% and 95.5%.
On to `C/C(=C\c1ccc(F)cc1)[N+](=O)[O-]` [Compound 11c], for which the viability at 10 µM in the data set on HG-3 CLL cell line (CLL cell) was 8.76%; in the data set with PGA-1 CLL cell line (setting [10]) it was 3.7%. Further, the “% Viable Cells Remaining MUTU-1 24 h 10 µM” value in data set [5] (nitrostyrenes, 10 µM, 24 h) is listed as 19.06%.
